ChEMBL document CHEMBL3507680, “University of Dundee, Gates Library screen for HepG2 cell viability”

Assay: Human HepG2 cell viability assay in 384 well format
Type: toxicity, cell-based
Parameters: dose 125 nL, time 70.5 hour; cytotoxicity at 70.5 h: concentration not given beside the values
Conditions: HepG2 cells, read-out: Inhibition

Compound | cytotoxicity at 70.5 h [%]
O=C(NCc1ccccn1)Nc1ccc2[nH]nnc2c1 | -4.24
CC(CO)N1CCN(C(=O)OC(C)(C)C)CC1 (configuration not stated) | -6.8
CC(NC(=O)NCc1ccccc1Cl)c1ccccn1 (configuration not stated) | 19.4
CCc1nc(CC(=O)N2CCCCC2Cn2cccn2)cs1 (configuration not stated) | 19
Cc1nc(CN2CCN(C(C)c3nc(C4CC4)no3)CC2)no1 (configuration not stated) | -4.1
COC(=O)C1CCN(C(=O)Cn2ccc(-c3ccc(F)cc3)n2)CC1 | -8.67
c1ccc(CCCN2CCCC(Nc3cnc4ccccc4n3)C2)cc1 (configuration not stated) | -2.78
CN(CC(=O)N(C)C1CCCCC1)C1CCc2ccccc21 (configuration not stated) | -3.54
O=C(Nc1nccs1)N(CCO)Cc1ccsc1 | 1.52
CC(C)c1n[nH]c(C2CN(C(=O)c3ccnc(C4CC4)n3)CCO2)n1 (configuration not stated) | 16.3
Cc1ccc(C2(C(=O)N3CCC(n4cc(C(C)O)nn4)CC3)CC2)cc1 (configuration not stated) | -7.08
CC(=O)N1CCCc2cc(NC(=O)NCCc3cnn(C)c3)ccc21 | -2.87
N#Cc1cn[nH]c1NCc1cc(I)cc(I)c1O | -9.83
COc1ccccc1S(=O)(=O)NCC(c1cccn1C)N(C)C (configuration not stated) | -2.15
CCSc1ncc(CN2C[C@H]3CC[C@@H]2CN(C2CCOCC2)C3)cn1 | -7.51
Fc1cnc(N2CCC3(CC2)CN(Cc2ccccn2)CCO3)nc1 | 5.75
CNC(=O)c1c(C)cccc1NCC(=O)Nc1cc(C)nn1C | 8.71
CCC(C)(N)c1nc(=O)c(C)c(C)[nH]1 (configuration not stated) | -7.88
CC1Oc2c(cccc2C(=O)N2CCN(CC(C)(C)O)CC2)NC1=O (configuration not stated) | -10.7

Compound | cytotoxicity at 70.5 h [%]
CCc1ccc(C(=O)N2CCCC(n3nc(C)nc3C)C2)o1 (configuration not stated) | 13.2
NCC1Cc2cc(-c3cncc(C(=O)N4CCCCC4)n3)cc(F)c2O1 (configuration not stated) | -4.24
O=C(C1CC1)N1CCC2(CC1)CNc1ccc(F)cc12 | -10.9
Cc1cc(N(C)Cc2cc(C)on2)n2nc(C)c(C)c2n1 | -5.61
CCNC(=O)N1CCN(c2nc3ccccc3n2C)CC1 | -3.78
CC(C)n1ccnc1CN1CCOC(CCc2ccccc2)C1 (configuration not stated) | -13.7
CCN(CC)C(=O)CCNC(=O)c1c[nH]c2ccc(OC)cc12 | 1.48
CN1CCCC(c2cccc(-c3ccccc3F)n2)C1 (configuration not stated) | -2.39
CNS(=O)(=O)c1cccc(C(C)NCc2ccc(C)c(C)c2)c1 (configuration not stated) | 19.3
CSc1nccc(NCC2CNCCO2)n1 (configuration not stated) | -5.51
O=C(Cc1cccnc1)N1CCCC(c2cc(C(F)(F)F)[nH]n2)C1 (configuration not stated) | -2.42
Cc1cc(-c2nn(C)c(Cl)c2CN2CC[C@H](CO)[C@@H](O)C2)no1 | 8.05
CC(CS(C)(=O)=O)N(C)C(=O)NCCCc1ccc(Cl)cc1 (configuration not stated) | -3.65
CN1CC(Oc2ccccc2)=NC(SCC(=O)c2ccccc2)=N1 | -0.583
CC(O)CNC(=O)Nc1ccc(Br)cc1Br (configuration not stated) | -3.83
Cc1cc(C(C)(O)CNC(=O)CCOCC(C)C)c(C)o1 (configuration not stated) | 0.738
CC(C)OCCSCCn1nc2ccccn2c1=O | -12.9
COCCN1CCN(c2cc(OC)ncn2)Cc2ccc(C)nc21 | -10.4
CCc1nccn1-c1cncc(C2CCCN2Cc2ccccn2)n1 (configuration not stated) | -7.66

Compound | cytotoxicity at 70.5 h [%]
CCCC(=O)NCCc1nc(N(C)C)ncc1-c1ccncc1 | -7.54
CC(C)c1nccn1C1CCCN(C(=O)c2ccc(=O)n(C)n2)C1 (configuration not stated) | -8.03
CC(C)c1nc(CNc2ccc(CCO)cc2)cs1 | 25.6
Cc1nc(CN2CCC(N(C)Cc3noc(C4CC4)n3)C2)oc1C (configuration not stated) | 4.91
NC(=O)c1cc(CC2CCCN(c3cnccn3)C2)ncn1 (configuration not stated) | -6.16
O=C(NCCn1cccc1)C(c1ccccc1)N1CCCC1 (configuration not stated) | 1.81
CNC(=O)[C@@H]1CCO[C@@H]2CCN(Cc3ccsc3)C[C@H]21 | -14
Cc1ncc(CNC(=O)CCc2cccc(F)c2)c(C2CCCN2C)n1 (configuration not stated) | -2.51
CCCc1cnc(C)nc1NCCc1nc(C)cc(=O)[nH]1 | -9.64
Cc1sc(CNS(N)(=O)=O)nc1-c1ccc(Cl)cc1 | -2.62
O=C(c1ccnnc1)N1C[C@@H]2COC[C@]2(COCC2CC2)C1 | -7.55
CN1CC2(CCN(C(=O)CCc3nc4cccnc4n3C)C2)OC1=O (configuration not stated) | 15.3
Cc1ccccc1CN1CCCN(C2CCOC2=O)CC1 (configuration not stated) | 3.44
Cc1oc(C)c(C(=O)NS(=O)(=O)c2ccc3c(c2)OCCO3)c1Br | -17.9
CNc1cnc(CC2COCCN(CCOc3ccccc3)C2)cn1 (configuration not stated) | -1.63
Cc1nnc(NC(=O)N2CCCN(C3CCCC3)CC2)s1 | -2.92
Cc1ccccc1C(C(=O)O)N(C)CC1CCOCC1 (configuration not stated) | -2.17
Cc1ccccc1-n1ncc2c(=O)n(CCN3CCCCC3)cnc21 | 21
COCC1Cn2nnc(-c3cnn(C)c3)c2CN1Cc1ccc(C)o1 (configuration not stated) | -12.2
